Experimental data: US12714736B2, “Methods for preventing an immunoglobulin e-related disease” (MY-OR DIAGNOSTICS LTD., priority 2019, dated 2026)

System: Staphylococcus epidermidis
Experiment: Anti/pro microbial study: Staphylococcus epidermidis cultured on a plate comprising acemannan
Type: cell-based
Conditions: culture plate, Acemannan 0.2% (w/w) vs control (double-distilled water), FIG. 1
Description: FIG. 1 includes a micrograph of culture plate of Staphylococcus epidermidis. The bacteria were cultured on the plate in presence of either Acemannan (0.2% (w/w)) or control (double-distilled water).
The inventors examined the activity of a composition comprising acemannan. The inventors performed an anti/pro microbial study, by culturing Staphylococcus epidermidis on a plate comprising acemannan. S. epidermidis is a skin resident who is known to play an important role in immune training and pathogen resistance. […] This supports the inventors' notion that the herein disclosed cream supports healthy colonization of the skin microbiome.

Acemannan
growth of S. epidermidis: Comparable levels of bacterial growth
growth of S. epidermidis (listed as acemannan): did not affect the growth of S. epidermidis
